The target in one assay is human cathepsin K (UniProt P43236, Y175D/V274L, species not given). Briefly: Cathepsin K Assay. In kind it is biochemical. Particulars: IP from dose response curve; Z-Leu-Arg-AMC substrate, pH 5.5; read-out: hrbCat K (IP (nM)).
In a further assay the target is T1, human cathepsin F (Homo sapiens, UniProt Q9UBX1).
T1 sequence (Q9UBX1 271-484): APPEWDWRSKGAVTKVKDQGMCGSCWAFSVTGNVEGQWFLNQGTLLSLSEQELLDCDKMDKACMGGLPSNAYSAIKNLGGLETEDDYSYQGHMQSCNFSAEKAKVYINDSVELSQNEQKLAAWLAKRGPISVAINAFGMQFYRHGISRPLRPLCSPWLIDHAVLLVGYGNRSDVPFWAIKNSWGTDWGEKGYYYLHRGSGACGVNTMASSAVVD
The assay is described as follows: Cathepsin F Assay. In kind it is biochemical. Particulars: IP from dose response curve; Z-Phe-Arg-AMC substrate, pH 5.5; read-out: hCat F (IP (nM)). In short, it runs like this: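 Human cathepsin F (10 nM) preincubated 15 min at room temperature with compounds in 50 mM MES pH 5.5, 2.5 mM EDTA, 2.5 mM DTT, 10% DMSO. Z-Phe-Arg-AMC (8 μM) added; AMC release read by fluorescence (Ex 360/Em 460 nm) over 20 min, inhibition fit to dose-response model.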

Seven compounds from patent US9656990B2, “Cathepsin cysteine protease inhibitors” (Merck Sharp & Dohme Corp., priority 2014, dated 2017) can be followed below.

As for `N#CC1(NC(=O)[C@@H]2CCCC[C@H]2c2nn(-c3cncc(F)c3)cc2-c2ccc(N3CCS(=O)(=O)CC3)cc2)CC1` [Example 165, (1R,2R)-N-(1-cyanocyclopropyl)-2-(4-(4-(1,1-dioxidothiomorpholino)phen-yl)-1-(5-fluoropyridin-3-yl)-1H-pyrazol-3-yl)cyclohexanecarboxamide], the IC50 was 0.9 nM on human cathepsin K and 319 nM on human cathepsin F.
The matching figures for `N#CC1(NC(=O)[C@@H]2CCCC[C@H]2c2nn(-c3ccc(C(F)(F)F)nc3)cc2-c2ccc(N3CCS(=O)(=O)CC3)cc2)CC1` [Example 166, (1R,2R)-N-(1-cyanocyclopropyl)-2-(4-(4-(1,1-dioxidothiomorpholino)phen-yl)-1-(6-(trifluoromethyl)pyridin-3-yl)-1H-pyrazol-3-yl)cyclohexanecarboxamide]: 1.31 nM and 428 nM.
As for `Cc1ccc(-n2cc(-c3ccc(N4CCS(=O)(=O)CC4)cc3)c([C@@H]3CCCC[C@H]3C(=O)NC3(C#N)CC3)n2)cn1` [Example 167, (1R,2R)-N-(1-cyanocyclopropyl)-2-(4-(4-(1,1-dioxidothiomorpholino)phen-yl)-1-(6-methylpyridin-3-yl)-1H-pyrazol-3-yl)cyclohexanecarboxamide], the results for the IC50 on human cathepsin K and on human cathepsin F were 0.66 nM and 602 nM, respectively.
On to `COc1ccc(-n2cc(-c3ccc(N4CCS(=O)(=O)CC4)cc3)c([C@@H]3CCCC[C@H]3C(=O)NC3(C#N)CC3)n2)cn1` [Example 168, (1R,2R)-N-(1-cyanocyclopropyl)-2-(4-(4-(1,1-dioxidothiomorpholino)phen-yl)-1-(6-methoxypyridin-3-yl)-1H-pyrazol-3-yl)cyclohexanecarboxamide], for which the IC50 at human cathepsin K came to 2.4 nM; at human cathepsin F, 763 nM.
On the same counts, the results for `N#CC1(NC(=O)[C@@H]2CCCC[C@H]2c2nn(-c3cc(F)cnc3F)cc2-c2ccc(N3CCS(=O)(=O)CC3)cc2)CC1` [Example 169, (1R,2R)-N-(1-cyanocyclopropyl)-2-(1-(2,5-difluoropyridin-3-yl)-4-(4-(1,1-dioxidothiomorpholino)phen-yl)-1H-pyrazol-3-yl)cyclohexanecarboxamide] are 3.94 nM and 5670 nM.
The matching figures for `N#CC1(NC(=O)[C@@H]2CCCC[C@H]2c2nn(-c3cnc(O)nc3)cc2-c2ccc(N3CCS(=O)(=O)CC3)cc2)CC1` [Example 170, (1R,2R)-N-(1-cyanocyclopropyl)-2-(4-(4-(1,1-dioxidothiomorpholino)phen-yl)-1-(2-hydroxypyrimidin-5-yl)-1H-pyrazol-3-yl)cyclohexanecarboxamide]: 1.88 nM and 2530 nM.
As to `Cn1cc(-n2cc(-c3ccc(N4CCS(=O)(=O)CC4)cc3)c([C@@H]3CCCC[C@H]3C(=O)NC3(C#N)CC3)n2)cn1` [Example 171, (1R,2R)-N-(1-cyanocyclopropyl)-2-(4-(4-(1,1-dioxidothiomorpholino)phen-yl)-1′-methyl-1′H-[1,4′-bipyrazol]-3-yl)cyclohexanecarboxamide], the IC50 on human cathepsin K is 3.38 nM; on human cathepsin F, 2760 nM.
